According to US11932628B2, “Selective small molecule peptidomimetic melanocortin ligands” (REGENTS OF THE UNIVERSITY OF MINNESOTA, priority 2021, dated 2024):

Experiments:
[1] = molecular target: mMC5R (Mus musculus, UniProt P41149); assay: cAMP based functional bioassay (CRE/β-galactosidase reporter), agonist activity at mMC5R
Procedure: (§1) The compounds were evaluated using a whole cell assay.
(§2) Compounds were dissolved in DMSO at a stock concentration of 10^−2 M and stored at −20° C. until assayed. HEK-293 cells stably expressing the selected melanocortin receptors were transiently transfected with 4 μg of CRE/β-galactosidase reporter gene. Briefly, 5000-15000 post transfection cells were plated into collagen treated 96-well plates (Nunc) and incubated overnight. […] The assay media was aspirated, and 50 μL of lysis buffer (250 mM Tris-HCl pH=8.0 and 0.1% Triton X-100) was added. The plates were stored at −80° C. overnight. The plates containing the cell lysates were thawed the following day. Aliquots of 10 μL were taken from each well and transferred to another 96-well plate for relative protein determination. To the cell lysate plates, 40 μL of phosphate-buffered saline with 0.5% BSA was added to each well. Subsequently, 150 μL of substrate buffer (60 mM sodium phosphate, 1 mM MgCl2, 10 mM KCl, 5 mM β-mercaptoethanol, 2 mg/mL ONPG) was added to each well and the plates were incubated at 37° C. The sample absorbance, OD405, was measured using a 96-well plate reader (Molecular Devices). The relative protein was determined by adding 200 μL of 1:5 dilution BioRad G250 protein dye:water to the 10 μL of cell lysate sample taken previously, and the OD595 was measured on a 96-well plate reader (Molecular Devices). Data points were normalized to forskolin and the relative protein content were used as positive controls. The EC50 values represent the mean of three or more independent experiments. The EC50 estimates, and their associated standard errors of the mean, were determined by fitting the data to a nonlinear least-squares analysis using the PRISM program (v4.0, GraphPad Inc.).
(§3) The results are tabulated in the form of EC50 values. In the case where the particular receptor was not activated to full activity at 100,000 nM, then the relative activity was reported.

[2] = molecular target: mMC1R (Mus musculus, UniProt Q01727); assay: cAMP based functional bioassay (CRE/β-galactosidase reporter), agonist activity at mMC1R; details: for mMC1R Activity @ 10 μM (class) / mMC1R Activity @ 10 μM (relative activity, percent): reported where receptor not activated to full activity
Chain of mMC1R (Q01727 whole entry): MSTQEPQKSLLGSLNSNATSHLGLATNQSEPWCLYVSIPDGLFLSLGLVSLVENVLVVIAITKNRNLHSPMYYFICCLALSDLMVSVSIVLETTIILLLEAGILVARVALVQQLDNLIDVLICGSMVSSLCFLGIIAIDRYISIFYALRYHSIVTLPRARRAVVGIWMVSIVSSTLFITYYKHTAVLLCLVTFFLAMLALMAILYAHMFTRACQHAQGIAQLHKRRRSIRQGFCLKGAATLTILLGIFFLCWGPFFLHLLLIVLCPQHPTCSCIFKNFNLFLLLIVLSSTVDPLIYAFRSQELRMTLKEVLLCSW
Procedure: as §1, §2, §3

[3] = molecular target: mMC3R (Mus musculus, UniProt P33033); assay: cAMP based functional bioassay (CRE/β-galactosidase reporter), agonist activity at mMC3R; details: for mMC3R Activity @ 10 μM (class) / mMC3R Activity @ 10 μM (relative activity, percent): reported where receptor not activated to full activity
Chain of mMC3R (P33033 whole entry): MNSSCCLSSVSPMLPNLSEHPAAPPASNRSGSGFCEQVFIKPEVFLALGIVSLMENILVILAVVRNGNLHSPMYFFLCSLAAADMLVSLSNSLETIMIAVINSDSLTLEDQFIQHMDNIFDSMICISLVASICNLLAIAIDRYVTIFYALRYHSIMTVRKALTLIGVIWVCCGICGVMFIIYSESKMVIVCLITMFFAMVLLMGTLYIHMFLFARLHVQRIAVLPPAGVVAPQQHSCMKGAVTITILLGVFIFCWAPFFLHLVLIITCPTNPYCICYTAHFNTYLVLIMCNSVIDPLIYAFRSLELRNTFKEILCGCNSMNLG
Procedure: as §1, §2, §3

[4] = molecular target: T1, mMC4R (Mus musculus, UniProt P56450); assay: cAMP based functional bioassay (CRE/β-galactosidase reporter), agonist activity at mMC4R; details: reported where receptor not activated to full activity
T1 sequence (P56450 whole entry): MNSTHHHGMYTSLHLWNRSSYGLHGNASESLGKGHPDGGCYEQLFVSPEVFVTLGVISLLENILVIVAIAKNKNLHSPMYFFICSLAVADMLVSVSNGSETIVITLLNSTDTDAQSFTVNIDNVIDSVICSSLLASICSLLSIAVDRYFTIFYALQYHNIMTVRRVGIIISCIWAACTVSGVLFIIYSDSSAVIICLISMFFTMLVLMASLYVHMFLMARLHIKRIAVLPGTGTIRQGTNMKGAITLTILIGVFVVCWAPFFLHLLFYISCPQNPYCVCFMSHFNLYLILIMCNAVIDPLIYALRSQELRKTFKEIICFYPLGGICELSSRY
Procedure: as §1, §2, §3

[5] = molecular target: T1, mMC4R; assay: Schild analysis of antagonist activity at mMC4R
Procedure: The antagonist activity may also be reported as a Ki value, which is the inverse Log of pA2. […] Compounds were dissolved in DMSO at a stock concentration of 10^−2 M and stored at −20° C. until assayed. HEK-293 cells stably expressing the selected melanocortin receptors were transiently transfected with 4 μg of CRE/β-galactosidase reporter gene. Briefly, 5000-15000 post transfection cells were plated into collagen treated 96-well plates (Nunc) and incubated overnight. […] The assay media was aspirated, and 50 μL of lysis buffer (250 mM Tris-HCl pH=8.0 and 0.1% Triton X-100) was added. The plates were stored at −80° C. overnight. The plates containing the cell lysates were thawed the following day. Aliquots of 10 μL were taken from each well and transferred to another 96-well plate for relative protein determination. To the cell lysate plates, 40 μL of phosphate-buffered saline with 0.5% BSA was added to each well. Subsequently, 150 μL of substrate buffer (60 mM sodium phosphate, 1 mM MgCl2, 10 mM KCl, 5 mM β-mercaptoethanol, 2 mg/mL ONPG) was added to each well and the plates were incubated at 37° C. The sample absorbance, OD405, was measured using a 96-well plate reader (Molecular Devices). The relative protein was determined by adding 200 μL of 1:5 dilution BioRad G250 protein dye:water to the 10 μL of cell lysate sample taken previously, and the OD595 was measured on a 96-well plate reader (Molecular Devices). Data points were normalized to forskolin and the relative protein content were used as positive controls. The EC50 values represent the mean of three or more independent experiments. The EC50 estimates, and their associated standard errors of the mean, were determined by fitting the data to a nonlinear least-squares analysis using the PRISM program (v4.0, GraphPad Inc.).
The reported values are on a log scale. In order to put them into perspective, their approximate binding disassociation constants, Ki values, can be calculated through the following relationship pA2=−Log10 (Ki).

Chain of mMC5R (P41149 whole entry): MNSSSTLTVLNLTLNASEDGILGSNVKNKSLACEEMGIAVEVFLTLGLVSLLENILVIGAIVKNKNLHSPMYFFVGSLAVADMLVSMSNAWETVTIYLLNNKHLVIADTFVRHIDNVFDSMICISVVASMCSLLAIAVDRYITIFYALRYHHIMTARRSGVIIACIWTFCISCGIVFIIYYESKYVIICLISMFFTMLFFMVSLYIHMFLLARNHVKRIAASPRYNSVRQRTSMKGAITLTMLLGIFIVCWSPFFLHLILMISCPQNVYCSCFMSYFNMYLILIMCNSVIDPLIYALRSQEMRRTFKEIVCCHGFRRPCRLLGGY

Compound	EC50 [1]	EC50 [2]	EC50 [3]	mMC4R Activity @ 10 μM (class) [4]	mMC4R Activity @ 10 μM (relative activity, percent) [4]	Kb [5]	mMC1R Activity @ 10 μM (class) [2]	mMC1R Activity @ 10 μM (relative activity, percent) [2]	mMC3R Activity @ 10 μM (class) [3]	mMC3R Activity @ 10 μM (relative activity, percent) [3]
CC(C)[C@@H]1CNC(=N)N1C[C@@H]1CCCN1C[C@@H](CC1CCCCC1)N1C[C@@H]([C@@H](C)O)N(CC23CC4CC(CC(C4)C2)C3)C1=N [TPI 2509-22, (R)-1-((S)-3-(adamantan-1-ylmethyl)-1-((R)-1-cyclohexyl-3-((S)-2-(((R)-2-imino-5-isopropylimidazolidin-1-yl)methyl)pyrrolidin-1-yl)propan-2-yl)-2-iminoimidazolidin-4-yl)ethanol]	600 ± 210 nM	200 ± 80 nM	370 ± 90 nM	A (A: <50%)	49%	1580 nM				
CC(C)C[C@@H]1CNC(=N)N1C[C@@H]1CCCN1C[C@@H](CC1CCCCC1)N1C[C@@H]([C@@H](C)O)N(CC2CCC(C(C)(C)C)CC2)C1=N (stereo partly drawn) [TPI 2509-5, (R)-1-((S)-3-((4-(tert-butyl)cyclohexyl)methyl)-1-((R)-1-cyclohexyl-3-((S)-2-(((R)-2-imino-5-isobutylimidazolidin-1-yl)methyl)pyrrolidin-1-yl)propan-2-yl)-2-iminoimidazolidin-4-yl)ethanol]	140 ± 70 nM	300 ± 90 nM	210 ± 50 nM		45%	1580 nM				
CCC[C@@H]1CN([C@H](CC2CCCCC2)CN2CCC[C@H]2CN2C(=N)NC[C@H]2CC(C)C)C(=N)N1CC12CC3CC(CC(C3)C1)C2 [TPI 2509-7]	470 ± 90 nM			A (A: <50%)	51%		B (B: >51%)	70%	B (B: >51%)	67%
CCC[C@@H]1CN([C@H](Cc2ccccc2)CN2CCC[C@H]2CN2C(=N)NC[C@H]2C(C)C)C(=N)N1CC1CCC(C(C)(C)C)CC1 (stereo partly drawn) [TPI 2509-35, (R)-3-((4-(tert-butyl)cyclohexyl)methyl)-1-((R)-1-((S)-2-(((R)-2-imino-5-isopropylimidazolidin-1-yl)methyl)pyrrolidin-1-yl)-3-phenylpropan-2-yl)-4-propylimidazolidin-2-imine]	940 ± 340 nM	2300 ± 1000 nM	6200 ± 5400 nM	A (A: <50%)	27%					
CC(C)[C@@H]1CNC(=N)N1C[C@@H]1CCCN1C[C@@H](CC1CCCCC1)N1C[C@@H](C(C)C)N(CC2CCC(C(C)(C)C)CC2)C1=N (stereo partly drawn) [TPI 2509-29, (R)-3-((4-(tert-butyl)cyclohexyl)methyl)-1-((R)-1-cyclohexyl-3-((S)-2-(((R)-2-imino-5-isopropylimidazolidin-1-yl)methyl)pyrrolidin-1-yl)propan-2-yl)-4-isopropylimidazolidin-2-imine]	510 ± 50 nM	290 ± 20 nM	4300 ± 3300 nM	A (A: <50%)	28%					
CCC[C@@H]1CN([C@H](Cc2ccccc2)CN2CCC[C@H]2CN2C(=N)NC[C@H]2CC(C)C)C(=N)N1CC1CCC(C(C)(C)C)CC1 (some centres unmarked) [TPI 2509-17]	480 ± 170 nM			A (A: <50%)	28%		A (A: <50%)	38%	B (B: >51%)	83%
CC(C)CCCN1C(=N)N([C@H](CC2CCCCC2)CN2CCC[C@H]2CN2C(=N)NC[C@H]2C(C)C)C[C@H]1C(C)C [TPI 2509-30, (R)-1-((R)-1-cyclohexyl-3-((S)-2-(((R)-2-imino-5-isopropylimidazolidin-1-yl)methyl)pyrrolidin-1-yl)propan-2-yl)-4-isopropyl-3-(4-methylpentyl)imidazolidin-2-imine]	1700 ± 520 nM	6100 nM		B (B: >51%)					B (B: >51%)	
CC(C)CCCN1C(=N)N([C@H](CC2CCCCC2)CN2CCC[C@H]2CN2C(=N)NC[C@H]2CC(C)C)C[C@H]1C(C)C [TPI 2509-12]	1850 ± 800 nM			B (B: >51%)			B (B: >51%)	50%	A (A: <50%)	33%
CCC[C@@H]1CN([C@H](CC2CCCCC2)CN2CCC[C@H]2CN2C(=N)NC[C@H]2C(C)C)C(=N)N1CC12CC3CC(CC(C3)C1)C2 [TPI 2509-25, (R)-3-(adamantan-1-ylmethyl)-1-((R)-1-cyclohexyl-3-((S)-2-(((R)-2-imino-5-isopropylimidazolidin-1-yl)methyl)pyrrolidin-1-yl)propan-2-yl)-4-propylimidazolidin-2-imine]	590 ± 180 nM	550 nM	2800 ± 1800 nM	A (A: <50%)	45%					
CCC[C@@H]1CN([C@H](CC2CCCCC2)CN2CCC[C@H]2CN2C(=N)NC[C@H]2C(C)C)C(=N)N1CCCC(C)C [TPI 2509-27]	1040 ± 150 nM			A (A: <50%)	40%		B (B: >51%)		B (B: >51%)	
CC(C)CCCN1C(=N)N([C@H](CC2CCCCC2)CN2CCC[C@H]2CN2C(=N)NC[C@H]2CC(C)C)C[C@H]1[C@H](C)O [TPI 2509-6]	630 ± 50 nM	7300 ± 4400 nM		A (A: <50%)					B (B: >51%)	58%
CC(C)[C@@H]1CNC(=N)N1C[C@@H]1CCCN1C[C@@H](Cc1ccccc1)N1C[C@@H](C(C)C)N(CC23CC4CC(CC(C4)C2)C3)C1=N [TPI 2509-37, (R)-3-(adamantan-1-ylmethyl)-1-((R)-1-((S)-2-(((R)-2-imino-5-isopropylimidazolidin-1-yl)methyl)pyrrolidin-1-yl)-3-phenylpropan-2-yl)-4-isopropylimidazolidin-2-imine]	660 ± 130 nM	47800 ± 23100 nM	4000 ± 1900 nM	B (B: >51%)	54%					
CC[C@H](C)[C@@H]1CNC(=N)N1C[C@@H]1CCCN1C[C@@H](Cc1ccccc1)N1CC(Cc2ccc(O)cc2)N(CC2CCC(C(C)(C)C)CC2)C1=N (stereo partly drawn) [TPI 2509-40, 4-((1-((R)-1-((S)-2-(((R)-5-((S)-sec-butyl)-2-iminoimidazolidin-1-yl)methyl)pyrrolidin-1-yl)-3-phenylpropan-2-yl)-3-((4-(tert-butyl)cyclohexyl)methyl)-2-iminoimidazolidin-4-yl)methyl)phenol]	380 ± 50 nM	290 ± 20 nM		A (A: <50%)	23%				B (B: >51%)	65%
